These results are taken from publication PMC6143625, “A high throughput screen for next-generation leads targeting malaria parasite transmission” (Nature Communications, 2018).

Like-named read-outs stand apart in the source and are kept apart here.

Experiment [1] deals with P. falciparum stage V male gametocytes (male gamete formation). The experiment can be described thus: P. falciparum dual gamete formation assay (Pf DGFA), male readout (exflagellation), 48 h carry-over format. The format is cell-based, Plasmodium falciparum NF54. The note with it: for IC50 / inhibition at 2 µM: Plasmodium falciparum; for inhibition at 2 µM: primary screen, single replicate; for activity in the Pf DGFA: freshly resynthesized compound.

Experiment [2] deals with P. falciparum 3D7 asexual blood stages. The experiment in a line: Whole-cell time extended asexual growth assay (pLDH). It counts as cell-based. The note with it: Plasmodium falciparum; for inhibition at 2 µM: primary screen, read-out: %Inh Asex stages @2uM. As to the method:
Asexual activity was assayed via Plasmodium lactate dehydrogenase activity (pLDH), a surrogate of asexual parasite growth. […] 2 µM artesunate and DMSO were used as the positive and negative controls, respectively. […] After plate mixing, NBT reduction was measured by absorbance at 650 nm using Envision (Perkin Elmer).

Experiment [3] concerns Stage IV–V 3D7 gametocytes. The experiment in a line: Gametocytocidal ATP-based bioluminescence assay (GC-ATP). The conditions noted are these: for IC50: Plasmodium falciparum, 3D7, 48h incubation, read-out: Pf late stage gametocyte (ATP depletion) IC50. It counts as cell-based, Plasmodium falciparum 3D7. The method, then: The metabolic viability of late stage gametocytes was determined using a gametocyte ATP bioluminescence assay. Stage IV–V 3D7 gametocyte cultures were double-purified by density gradient sedimentation over NycoPrep® followed by magnetic isolation. Then, parasites (50 µl per well containing 12,500 gametocytes) were added to compound pre-dispensed 384-well plates (781091, Greiner) and incubated at 37 °C for 48 h under 5% CO2/3% O2/92% N2. BacTiter-Glo® kit (G8231, Promega) was used to determine the ATP levels of viable parasites according to manufacturer’s instructions. After reagent addition (50 µl per well), luminescence of the plates was measured using a microplate reader (HTS counter Victor, Wallac).

The subject of experiment [4] is P. falciparum male gamete formation. The experiment can be described thus: Pf DGFA add-in format, male readout. The format is cell-based, Plasmodium falciparum. The note with it: for IC50: Plasmodium falciparum, 0h preincubation/add-in. The method, then: In profiling mode, the Pf DGFA was performed in 96-well plates[23] in wash-out and add-in formats to aid manual manipulation steps. In the wash-out format, gametocytes were incubated for 24 h with test compounds in round-bottomed 96 well plates and then culture medium replaced three times over 6 h, to remove as much of the compound as possible from the well. […] In add-in format, gametocytes were added directly to flat-bottomed 96-well plates containing test compounds, ookinete medium and anti-Pfs25.

Experiment [5] concerns the target T1, recombinant luciferase (Photinus pyralis) (Photinus pyralis, UniProt P08659).
T1 construct: purchased Promega E1701
The experiment in a line: Recombinant luciferase inhibition assay. The format is biochemical. As to the method: A counter-screen to the P. berghei liver stage assay was run against recombinant luciferase (Photinus pyralis) to measure the intrinsic bioluminescence inhibition from select compounds. Briefly, compounds were plated in 12-point serial dose response (50–2.82 × 10^−4 µM) in 1536-well opaque-bottom plates (789173-F, Greiner Bio-One). A 20 pM QuantiLum® Recombinant Luciferase (E1701, Promega) containing solution was made in screening media (DMEM, 11965–092, Invitrogen; 5% FBS, 35–011-CV, Corning; 5x Pen Strep Glutamine, 10378–016, Invitrogen), and 8 µl were added to each well. After 1 h incubation at room temperature, 2 µl of Bright-Glo™ (E2610, Promega) were dispensed per well, and bioluminescence was immediately measured using the EnVision microplate reader (PerkinElmer). DMSO (0.5%) and Luciferase Inhibitor-2 (9.8 µM) (119114, MilliporeSigma) served as negative and positive controls, respectively.

Experiment [6] deals with P. falciparum stage V male gametocytes (male gamete formation). The experiment in a line: P. falciparum dual gamete formation assay (Pf DGFA), male readout (exflagellation), 48 h carry-over format. It counts as cell-based, Plasmodium falciparum NF54. The conditions noted are these: Plasmodium falciparum, 24h preincubation/carry-over.
For a further experiment, the system named is HepG2 human cells. Also noted: method as in http://dx.doi.org/10.6019/CHEMBL3507680. The conditions noted are these: ref http://dx.doi.org/10.6019/CHEMBL3507680; cited from earlier work.
The mark [7] stands for this setting: 48h preincubation/carry-over, read-out: Pf DGFA Male IC50.
[8] abbreviates: dose response retest, 72 h, read-out: IC50 (µM) Asex stages.
Where [9] appears, read: 1h incubation, read-out: Recombinant luciferase assay IC50.
The mark [10] stands for this setting: 48 h, dose response retest of primary hits, 48 h incubation, read-out: Male IC50.
The mark [11] stands for this setting: 72h incubation, read-out: Pf Asexual IC50.

T1 sequence (P08659 whole entry): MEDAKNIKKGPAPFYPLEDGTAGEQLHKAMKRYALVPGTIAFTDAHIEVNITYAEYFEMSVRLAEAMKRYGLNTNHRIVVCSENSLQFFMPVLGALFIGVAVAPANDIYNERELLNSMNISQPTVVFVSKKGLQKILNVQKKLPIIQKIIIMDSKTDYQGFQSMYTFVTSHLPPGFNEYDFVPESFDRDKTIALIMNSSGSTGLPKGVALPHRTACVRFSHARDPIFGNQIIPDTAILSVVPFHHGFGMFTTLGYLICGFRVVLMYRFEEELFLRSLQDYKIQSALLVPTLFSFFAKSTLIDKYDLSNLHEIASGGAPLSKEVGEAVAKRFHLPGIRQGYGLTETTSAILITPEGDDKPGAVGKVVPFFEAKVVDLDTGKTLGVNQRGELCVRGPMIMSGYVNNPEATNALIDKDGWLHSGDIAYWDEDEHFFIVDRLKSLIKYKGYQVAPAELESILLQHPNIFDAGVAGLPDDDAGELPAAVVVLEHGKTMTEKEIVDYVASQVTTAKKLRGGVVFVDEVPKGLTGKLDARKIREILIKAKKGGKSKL

Turning to `CNc1cc(C)nc(NC2CCCN(C3Cc4ccccc4C3)C2)n1` (stereo not shown) [DDD01243506], the IC50 in experiment [1] (setting [7]) is greater than 12.5 µM; in experiment [2] (setting [8]), 1.07 µM; in experiment [2] (profiling / reconfirmation, read-out: Pf asexual IC50), 0.66 µM; in experiment [3], greater than 10 µM; in experiment [4], greater than 10 µM; in experiment [5] (setting [9]), greater than 50 µM. For the same molecule, the IC50 in experiment [5] (read-out: Recombinant luciferase IC50) is no less than 50 µM; in experiment [6] it was greater than 12.5 µM. Moreover, the inhibition at 2 µM in experiment [2] (72 h) was 97.1%. Besides, the “%Inh HepG2 @10uM” value in the experiment with HepG2 human cells is 28.56%.
`OC1(CN2CCC(Oc3cccc(C(F)(F)F)c3)CC2)CCNC1` (stereo not shown) [DDD01245291]: the IC50 is 3.05 µM in experiment [1] (setting [10]); 1.11 µM in experiment [1] (setting [7]); 6.66 µM in experiment [2] (setting [11]); greater than 10 µM in experiment [3]; greater than 10 µM in experiment [4]; greater than 50 µM in experiment [5] (setting [9]). Also, in experiment [6], the IC50 worked out at 5.99 µM. For the same molecule, in experiment [1] (48 h incubation), the inhibition at 2 µM is 48.3%. Moreover, the “%Inh HepG2 @10uM” value in the experiment on HepG2 human cells is reported as -7.31%.
As for `CC(c1cccs1)N(C)Cc1cnc(-c2ccccn2)nc1` (stereo not shown) [DDD01246628], the IC50 in experiment [1] (setting [10]) was 2.54 µM; in experiment [1] (setting [7]), 1.17 µM; in experiment [2] (setting [11]) it was 4.75 µM; in experiment [3], 2.31 µM; in experiment [4] it was greater than 10 µM; in experiment [5] (setting [9]), 4.28 µM. The molecule further registered an IC50 in experiment [6] greater than 25 µM. The same molecule displayed an inhibition at 2 µM in experiment [1] (48 h incubation) of 67.8%. Besides, in the experiment on HepG2 human cells, the “%Inh HepG2 @10uM” value was 3.52%.
For the molecule `CC(C)CN1CCn2nc(CNc3ncnc4[nH]ccc34)cc2C1` [DDD01249504], the IC50 in experiment [1] (setting [10]) is 2.27 µM; in experiment [1] (setting [7]), 1.66 µM; in experiment [1] (240 h, resynthesized, aged 10 days at room temperature in the light, read-out: IC50 in Pf DGFA after aging) it was 0.381 µM; in experiment [2] (setting [11]), greater than 20 µM; in experiment [3], greater than 10 µM; in experiment [4], greater than 10 µM. Moreover, the IC50 in experiment [5] (setting [9]) is greater than 50 µM; in experiment [6] it was 1.83 µM. The molecule further yielded an inhibition at 2 µM in experiment [1] (48 h incubation) of 52.1%. In experiment [1], the “activity in the Pf DGFA” value was “inactive”. Further, the “activity in Pf DGFA after aging” value in experiment [1] (resynthesized, incubated in the dark at 37 °C) was “inactive”. Moreover, in experiment [1] (resynthesized, untreated compound), the “activity in Pf DGFA” value is “inactive”. Moreover, the “%Inh HepG2 @10uM” value in the experiment with HepG2 human cells is given as 7.26%.
As for `CCCn1nccc1C(=O)N1CCN(C2CCc3ccccc3C2)CC1` (stereo not shown) [DDD01251134], the IC50 was greater than 12.5 µM in experiment [1] (setting [7]); 1.01 µM in experiment [2] (setting [11]); 0.969 µM in experiment [2] (setting [8]); greater than 10 µM in experiment [3]; greater than 10 µM in experiment [4]; greater than 50 µM in experiment [5] (setting [9]). Also, the IC50 in experiment [6] is greater than 12.5 µM. In experiment [2] (72 h), the inhibition at 2 µM came out at 58.4%. Further, the “%Inh HepG2 @10uM” value in the experiment with HepG2 human cells is recorded as -7.89%.
As for `Cc1nn(C)c(Oc2ccc(Cl)cc2)c1CN1CCC(CN)C1` (stereo not shown) [DDD01254274], the IC50 was 4.08 µM in experiment [1] (setting [10]); 2.25 µM in experiment [1] (setting [7]); greater than 20 µM in experiment [2] (setting [11]); 6.86 µM in experiment [3]; greater than 10 µM in experiment [4]; greater than 50 µM in experiment [5] (setting [9]). Besides, in experiment [6], the concentration for half-maximal inhibition (IC50) is greater than 25 µM. In experiment [1] (48 h incubation), this molecule had an inhibition at 2 µM of 53.1%. Also, the “%Inh HepG2 @10uM” value in the experiment with HepG2 human cells was -8.55%.
Regarding `CCc1ccc(C2c3nc[nH]c3CCN2Cc2nccn2CC)nc1` (stereo not shown) [DDD01254473], the IC50 is greater than 10 µM in experiment [1] (setting [10]); 3.96 µM in experiment [1] (setting [7]); greater than 20 µM in experiment [2] (setting [11]); 0.53 µM in experiment [3]; greater than 10 µM in experiment [4]; greater than 50 µM in experiment [5] (setting [9]). In experiment [6], the IC50 was greater than 25 µM. For the same molecule, the inhibition at 2 µM in experiment [1] (48 h incubation) was less than 30%. Also, the “activity in the GC-ATP assay” value in experiment [3] (profiling) was “submicromolar”. Also, the “%Inh HepG2 @10uM” value in the experiment with HepG2 human cells is on record as 33.1%.
On to `CCOc1ccc2ccccc2c1CNCC1CCNCC1.Cl.Cl` [DDD01255740], for which the half-inhibitory concentration (IC50) is 4.4 µM in experiment [1] (setting [10]); 0.41 µM in experiment [1] (setting [7]); 3.56 µM in experiment [2] (setting [11]); greater than 10 µM in experiment [3]; greater than 10 µM in experiment [4]; greater than 50 µM in experiment [5] (setting [9]). Further, the half-maximal inhibitory concentration (IC50) in experiment [6] stood at 4.1 µM. The same molecule registered an inhibition at 2 µM in experiment [1] (48 h incubation) of 35.6%. In addition, the “%Inh HepG2 @10uM” value in the experiment on HepG2 human cells is reported as 9.2%.
Consider `Cc1ccc(-c2cc(C(=O)NCCC3=CCCCC3)[nH]n2)o1` [DDD01255968], for which the IC50 is 1.55 µM in experiment [1] (setting [10]); 1.82 µM in experiment [1] (setting [7]); 15.9 µM in experiment [1] (resynthesized, incubated at room temperature, read-out: IC50 in Pf DGFA after aging); 5.85 µM in experiment [1] (resynthesized, prolonged incubation at 37 °C, read-out: IC50 in Pf DGFA after aging); greater than 20 µM in experiment [2] (setting [11]); greater than 10 µM in experiment [3]. Besides, the half-inhibitory concentration (IC50) in experiment [4] turned out to be 0.32 µM; in experiment [5] (setting [9]), 17.9 µM; in experiment [6], 1.17 µM. In experiment [1] (48 h incubation), the inhibition at 2 µM was 37.5%. Further, the “activity in the Pf DGFA” value in experiment [1] was “inactive”. In addition, the “activity in the add-in format” value in experiment [4] (profiling) is on record as “active”. Besides, the “%Inh HepG2 @10uM” value in the experiment on HepG2 human cells was -10.6%.
Consider `CCn1ncc(Br)c1CN(C)S(=O)(=O)c1ccc(C)cc1` [DDD01259521], for which the IC50 in experiment [1] (setting [7]) was greater than 12.5 µM; in experiment [2] (setting [11]), 1.06 µM; in experiment [2] (setting [8]), 1.02 µM; in experiment [3] it was greater than 10 µM; in experiment [4], greater than 10 µM; in experiment [5] (setting [9]) it was greater than 50 µM. Besides, the IC50 in experiment [6] was greater than 12.5 µM. In addition, in experiment [2] (72 h), the inhibition at 2 µM was found to be 56.1%. Moreover, in the experiment on HepG2 human cells, the “%Inh HepG2 @10uM” value is on record as 8.37%.
For `c1cnnc(N2CCCC2CNc2ncnc3sccc23)c1` (stereo not shown) [DDD01299704], the half-maximal inhibitory concentration (IC50) in experiment [1] (setting [7]) is greater than 12.5 µM; in experiment [2] (setting [11]), 0.44 µM; in experiment [2] (setting [8]), 0.532 µM; in experiment [3], greater than 10 µM; in experiment [4], greater than 10 µM; in experiment [5] (setting [9]) it was greater than 50 µM. The IC50 in experiment [6] is greater than 12.5 µM. In addition, the inhibition at 2 µM in experiment [2] (72 h) worked out at 66.7%. The “%Inh HepG2 @10uM” value in the experiment on HepG2 human cells was -7.82%.

One may read the IC50 as the concentration at which inhibition is half-maximal.
